According to ChEMBL document CHEMBL5046315, “CRCM5484: A BET-BDII Selective Compound with Differential Anti-leukemic Drug Modulation” (J Med Chem, 2022):
Active and inactive are the calls of the source. No cut-off for these calls is given here.

How the values were obtained:
U-937 [1] = experiment: Potentiation of erlotinib-induced antileukemic activity against human U-937 cells at 4.3 uM in presence of bone-marrow derived stromal cell-conditioned medium; format: functional, cell-based
U-937 [2] = experiment: Potentiation of nelarabine-induced antileukemic activity against human U-937 cells at 4.3 uM in presence of bone-marrow derived stromal cell-conditioned medium; format: functional, cell-based
U-937 [3] = experiment: Potentiation of AraC-induced antileukemic activity against human U-937 cells at 4.3 uM in presence of bone-marrow derived stromal cell-conditioned medium; format: functional, cell-based
U-937 [4] = experiment: Potentiation of volasertib-induced antileukemic activity against human U-937 cells at 4.3 uM in presence of bone-marrow derived stromal cell-conditioned medium; format: functional, cell-based
U-937 [5] = experiment: Potentiation of selinexor-induced antileukemic activity against human U-937 cells at 4.3 uM in presence of bone-marrow derived stromal cell-conditioned medium; format: functional, cell-based
CCRF-CEM [6] = experiment: Potentiation of dexamethasone-induced antileukemic activity against human CCRF-CEM cells at 4.3 uM in presence of bone-marrow derived stromal cell-conditioned medium; format: functional, cell-based
MOLM-14 [7] = experiment: Potentiation of vermurafenib-induced antileukemic activity against human MOLM-14 cells at 4.3 uM in presence of bone-marrow derived stromal cell-conditioned medium; format: functional, cell-based
CCRF-CEM [8] = experiment: Potentiation of tretinoin-induced antileukemic activity against human CCRF-CEM cells at 4.3 uM in presence of bone-marrow derived stromal cell-conditioned medium; format: functional, cell-based
MOLM-14 [9] = experiment: Potentiation of sorafenib-induced antileukemic activity against human MOLM-14 cells at 4.3 uM in presence of bone-marrow derived stromal cell-conditioned medium; format: functional, cell-based
U-937 [10] = experiment: Potentiation of 17AAG-induced antileukemic activity against human U-937 cells at 4.3 uM in presence of bone-marrow derived stromal cell-conditioned medium; format: functional, cell-based
MOLM-14 [11] = experiment: Potentiation of idelalisib-induced antileukemic activity against human MOLM-14 cells at 4.3 uM in presence of bone-marrow derived stromal cell-conditioned medium; format: functional, cell-based
CCRF-CEM [12] = experiment: Potentiation of ruxolitinib-induced antileukemic activity against human CCRF-CEM cells at 4.3 uM in presence of bone-marrow derived stromal cell-conditioned medium; format: functional, cell-based
MOLM-14 [13] = experiment: Potentiation of 17AAG-induced antileukemic activity against human MOLM-14 cells at 4.3 uM in presence of bone-marrow derived stromal cell-conditioned medium; format: functional, cell-based
U-937 [14] = experiment: Potentiation of temsirolimus-induced antileukemic activity against human U-937 cells at 4.3 uM in presence of bone-marrow derived stromal cell-conditioned medium; format: functional, cell-based
MOLM-14 [15] = experiment: Potentiation of niotinib-induced antileukemic activity against human MOLM-14 cells at 4.3 uM in presence of bone-marrow derived stromal cell-conditioned medium; format: functional, cell-based
CCRF-CEM [16] = experiment: Potentiation of metformin -induced antileukemic activity against human CCRF-CEM cells at 4.3 uM in presence of bone-marrow derived stromal cell-conditioned medium; format: functional, cell-based
MOLM-14 [17] = experiment: Potentiation of prima1-induced antileukemic activity against human MOLM-14 cells at 4.3 uM in presence of bone-marrow derived stromal cell-conditioned medium; format: functional, cell-based
U-937 [18] = experiment: Potentiation of docetaxel-induced antileukemic activity against human U-937 cells at 4.3 uM in presence of bone-marrow derived stromal cell-conditioned medium; format: functional, cell-based
[19] = molecular target: Bromodomain-containing protein 4 (Homo sapiens, UniProt O60885); experiment: Inhibition of human partial length BRD4-BD2 (K333 to E460 residues) expressed in bacterial system at 1 uM by BROMOscan method relative to control
MOLM-14 [20] = experiment: Potentiation of olaparid-induced antileukemic activity against human MOLM-14 cells at 4.3 uM in presence of bone-marrow derived stromal cell-conditioned medium; format: functional, cell-based
U-937 [21] = experiment: Potentiation of arsenic-induced antileukemic activity against human U-937 cells at 4.3 uM in presence of bone-marrow derived stromal cell-conditioned medium; format: functional, cell-based
CCRF-CEM [22] = experiment: Potentiation of nelarabine-induced antileukemic activity against human CCRF-CEM cells at 4.3 uM in presence of bone-marrow derived stromal cell-conditioned medium; format: functional, cell-based
CCRF-CEM [23] = experiment: Potentiation of SGI-110-induced antileukemic activity against human CCRF-CEM cells at 4.3 uM in presence of bone-marrow derived stromal cell-conditioned medium; format: functional, cell-based
U-937 [24] = experiment: Potentiation of ruxolitinib-induced antileukemic activity against human U-937 cells at 4.3 uM in presence of bone-marrow derived stromal cell-conditioned medium; format: functional, cell-based
MOLM-14 [25] = experiment: Potentiation of AC-4-130-induced antileukemic activity against human MOLM-14 cells at 4.3 uM in presence of bone-marrow derived stromal cell-conditioned medium; format: functional, cell-based
MOLM-14 [26] = experiment: Potentiation of erlotinib-induced antileukemic activity against human MOLM-14 cells at 4.3 uM in presence of bone-marrow derived stromal cell-conditioned medium; format: functional, cell-based
CCRF-CEM [27] = experiment: Potentiation of alisertib-induced antileukemic activity against human CCRF-CEM cells at 4.3 uM in presence of bone-marrow derived stromal cell-conditioned medium; format: functional, cell-based
U-937 [28] = experiment: Potentiation of vermurafenib-induced antileukemic activity against human U-937 cells at 4.3 uM in presence of bone-marrow derived stromal cell-conditioned medium; format: functional, cell-based
MOLM-14 [29] = experiment: Potentiation of trametinib-induced antileukemic activity against human MOLM-14 cells at 4.3 uM in presence of bone-marrow derived stromal cell-conditioned medium; format: functional, cell-based
U-937 [30] = experiment: Potentiation of VX680-induced antileukemic activity against human U-937 cells at 4.3 uM in presence of bone-marrow derived stromal cell-conditioned medium; format: functional, cell-based
MOLM-14 [31] = experiment: Potentiation of SGI-110-induced antileukemic activity against human MOLM-14 cells at 4.3 uM in presence of bone-marrow derived stromal cell-conditioned medium; format: functional, cell-based
CCRF-CEM [32] = experiment: Potentiation of SGI-1776-induced antileukemic activity against human CCRF-CEM cells at 4.3 uM in presence of bone-marrow derived stromal cell-conditioned medium; format: functional, cell-based
MOLM-14 [33] = experiment: Potentiation of MK2206-induced antileukemic activity against human MOLM-14 cells at 4.3 uM in presence of bone-marrow derived stromal cell-conditioned medium; format: functional, cell-based
MOLM-14 [34] = experiment: Potentiation of temsirolimus-induced antileukemic activity against human MOLM-14 cells at 4.3 uM in presence of bone-marrow derived stromal cell-conditioned medium; format: functional, cell-based
U-937 [35] = experiment: Potentiation of olaparid-induced antileukemic activity against human U-937 cells at 4.3 uM in presence of bone-marrow derived stromal cell-conditioned medium; format: functional, cell-based
CCRF-CEM [36] = experiment: Potentiation of ponatinib-induced antileukemic activity against human CCRF-CEM cells at 4.3 uM in presence of bone-marrow derived stromal cell-conditioned medium; format: functional, cell-based
[37] = molecular target: Bromodomain-containing protein 2 (Homo sapiens, UniProt P25440); experiment: Inhibition of human partial length BRD2-BD2 (E348 to D455 residues) expressed in bacterial system at 1 uM by BROMOscan method relative to control
[38] = tested on: Acute myeloid leukemic cell; experiment: Potentiation of vorinostat-induced antileukemic activity against patient derived mouse xenografted acute myeloid leukemic cells assessed as cell viability at 0.16 to 10 uM in presence of bone-marrow derived stromal cell-conditioned medium measured after 72 to 144 hrs by cell-titre glo luminescent assay; format: functional, cell-based; conditions: Homo sapiens, dose 0.16-10 µM, time lower […], time upper 144.0 hrs
CCRF-CEM [39] = experiment: Potentiation of AG-221-induced antileukemic activity against human CCRF-CEM cells at 4.3 uM in presence of bone-marrow derived stromal cell-conditioned medium; format: functional, cell-based

Chain of Bromodomain-containing protein 2 (P25440 whole entry, looked up, the tested form may be a part): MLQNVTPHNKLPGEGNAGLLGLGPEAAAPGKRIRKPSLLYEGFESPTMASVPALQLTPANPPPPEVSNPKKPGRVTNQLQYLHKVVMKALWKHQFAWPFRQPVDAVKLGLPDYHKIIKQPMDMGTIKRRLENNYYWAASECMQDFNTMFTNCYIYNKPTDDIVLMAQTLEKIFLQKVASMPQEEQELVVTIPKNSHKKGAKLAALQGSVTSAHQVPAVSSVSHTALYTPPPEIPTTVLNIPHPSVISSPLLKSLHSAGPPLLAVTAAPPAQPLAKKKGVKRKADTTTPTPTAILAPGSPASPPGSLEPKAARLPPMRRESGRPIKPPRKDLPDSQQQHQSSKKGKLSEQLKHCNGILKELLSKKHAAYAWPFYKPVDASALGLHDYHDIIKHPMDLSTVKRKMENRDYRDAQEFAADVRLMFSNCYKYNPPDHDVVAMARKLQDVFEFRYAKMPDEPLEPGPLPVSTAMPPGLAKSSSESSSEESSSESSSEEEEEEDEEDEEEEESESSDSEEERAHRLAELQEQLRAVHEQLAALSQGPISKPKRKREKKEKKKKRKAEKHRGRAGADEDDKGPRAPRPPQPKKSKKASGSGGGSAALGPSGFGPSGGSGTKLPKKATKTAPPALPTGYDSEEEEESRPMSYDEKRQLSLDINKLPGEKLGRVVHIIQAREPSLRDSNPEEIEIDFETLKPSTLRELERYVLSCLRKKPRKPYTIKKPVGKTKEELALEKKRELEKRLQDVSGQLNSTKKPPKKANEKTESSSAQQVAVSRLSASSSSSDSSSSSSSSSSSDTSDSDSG

Compound: CC(=O)N1CCc2c(sc3nc(SCC(=O)Nc4cccnc4C)n(Cc4ccco4)c(=O)c23)C1
- Activity (U-937 [1]): inactive
- Activity (U-937 [2]): inactive
- Activity (U-937 [3]): inactive
- Activity (U-937 [4]): inactive
- Activity (U-937 [5]): inactive
- Activity (CCRF-CEM [6]): inactive
- Activity (MOLM-14 [7]): inactive
- Activity (CCRF-CEM [8]): inactive
- Activity (MOLM-14 [9]): inactive
- Activity (U-937 [10]): inactive
- Activity (MOLM-14 [11]): inactive
- Activity (CCRF-CEM [12]): inactive
- Activity (MOLM-14 [13]): inactive
- Activity (U-937 [14]): inactive
- Activity (MOLM-14 [15]): inactive
- Activity (CCRF-CEM [16]): inactive
- Activity (MOLM-14 [17]): inactive
- Activity (U-937 [18]): inactive
- inhibition [19]: 41%
- Activity (MOLM-14 [20]): inactive
- Activity (U-937 [21]): inactive
- Activity (CCRF-CEM [22]): inactive
- Activity (CCRF-CEM [23]): inactive
- Activity (U-937 [24]): inactive
- Activity (MOLM-14 [25]): inactive
- Activity (MOLM-14 [26]): inactive
- Activity (CCRF-CEM [27]): inactive
- Activity (U-937 [28]): inactive
- Activity (MOLM-14 [29]): inactive
- Activity (U-937 [30]): inactive
- Activity (MOLM-14 [31]): inactive
- Activity (CCRF-CEM [32]): inactive
- Activity (MOLM-14 [33]): inactive
- Activity (MOLM-14 [34]): inactive
- Activity (U-937 [35]): inactive
- Activity (CCRF-CEM [36]): inactive
- inhibition [37]: 37%
- Activity [38]: Active
- Activity (CCRF-CEM [39]): inactive
